Source: patent US12344621B2, “CGRP antagonist compounds” (Nxera Pharma UK Limited, priority 2019, dated 2025)
Where two headings read alike, the source gives them in different places.

Assays:
[1] = amide bond
[2] = amide bond; remark: listed apart in the source
human CGRP receptor = target: T1, human CGRP receptor (Homo sapiens, UniProt O60894+Q16602); test: cAMP functional assay (HTRF cAMP dynamic-2) in SK-N-MC cells; type: cell-based; conditions: SK-N-MC cells endogenously expressing human CGRP receptor; challenge with EC80 human CGRP (0.3 nM); functional pKb converted from pIC50 by modified Cheng-Prussoff equation
T1 construct: SK-N-MC endogenously expressing the human CGRP receptor; endogenous in cells; host or cells: SK-N-MC human neuroblastoma cells
Description: Biological Activity cAMP Functional Assay
cAMP production following receptor activation was determined using the Homogeneous Time-Resolved Fluorescence (HTRF) cAMP dynamic-2 assay (Cisbio, France). The human neuroblastoma cell line SK-N-MC endogenously expressing the human CGRP receptor was seeded at a density of 12,500 cells/well in solid walled 96 well half area plates (Costar, Catalog Number 3688, Corning Life Sciences, Germany). After 16 h incubation at 37° C. media was removed and cells were incubated at 37° C. for 30 min in serum free media containing 500 μM IBMX (Tocris, Abingdon, UK, Catalog Number 2845) and increasing concentrations of test antagonist. Following this cells were challenged with an EC80 concentration of human CGRP (0.3 nM) for a further 30 min at 37° C. and then cAMP production was determined as manufacturer's instructions before plates were read on a PheraStar fluorescence plate reader (BMG LabTech, Germany). IC50 values were derived from the inhibition curve. The pIC50 values (where pIC50=−log 10 IC50) were converted to a functional pKb value using a modified Cheng-Prussoff equation where Kd=agonist EC50 and L hot=agonist challenge concentration. The pKb values of certain compounds of the invention are detailed in Table 4.

T1 sequence (Q16602 23-461): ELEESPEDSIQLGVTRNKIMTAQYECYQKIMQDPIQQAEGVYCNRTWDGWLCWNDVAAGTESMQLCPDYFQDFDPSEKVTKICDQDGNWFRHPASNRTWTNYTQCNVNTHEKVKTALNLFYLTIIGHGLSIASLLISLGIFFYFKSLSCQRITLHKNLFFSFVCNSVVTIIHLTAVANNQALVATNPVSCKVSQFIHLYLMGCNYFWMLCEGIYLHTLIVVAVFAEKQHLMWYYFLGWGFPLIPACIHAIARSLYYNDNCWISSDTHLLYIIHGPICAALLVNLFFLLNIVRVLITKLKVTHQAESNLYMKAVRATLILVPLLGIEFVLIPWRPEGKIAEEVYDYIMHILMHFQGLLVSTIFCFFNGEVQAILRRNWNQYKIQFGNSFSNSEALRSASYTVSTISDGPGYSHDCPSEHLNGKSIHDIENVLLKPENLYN
T1 sequence (O60894 27-148): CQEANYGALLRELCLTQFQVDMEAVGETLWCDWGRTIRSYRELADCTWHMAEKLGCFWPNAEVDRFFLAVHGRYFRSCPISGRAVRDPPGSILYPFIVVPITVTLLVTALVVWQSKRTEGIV

| SMILES | Kb (human CGRP receptor) [nM] | further results |
| --- | --- | --- |
| Cc1cc(C[C@H]2NC(=O)c3cnc4c(c3)C[C@@]3(C4)C(=O)Nc4ncc(cc43)/C=C/COCCOCCN(C)C2=O)cc2cn[nH]c12 [Example 1-1, (1S,10R,20E)-12-methyl-10-[(7-methyl-1H-indazol-5-yl)methyl]-15,18-dioxa-5,9,12,24,26-pentazapentacyclo[20.5.2.11,4.13,7.025,28]hentriaconta-3,5,7(30),20,22(29),23,25(28)-heptaene-8,11,27-trione] | 0.251 | ring closure, isolated yield ([1]; from CNCCOCCOC/C=C/c1cnc2c(c1)[C@@]1(Cc3cc(C(=O)N[C@H](Cc4cc(C)c5[nH]ncc5c4)C(=O)O)cnc3C1)C(=O)N2, 22-membered ring, HATU/DIEA, DMA, 6.6 mM, 0.25 h): 51%; ring closure, yield of all isomers ([2]; from CNCCOCCOC/C=C/c1cnc2c(c1)[C@@]1(Cc3cc(C(=O)N[C@H](Cc4cc(C)c5[nH]ncc5c4)C(=O)O)cnc3C1)C(=O)N2, HATU, DMA, 6.6 mM, 0.25 h): 51% |
| Cc1cc(C[C@H]2NC(=O)c3cnc4c(c3)C[C@@]3(C4)C(=O)Nc4ncc(cc43)/C=C/CCCCCCCN(C)C2=O)cc2cn[nH]c12 [Example 1-5, (1S,10R,20E)-12-methyl-10-[(7-methyl-1H-indazol-5-yl)methyl]-5,9,12,24,26-pentazapentacyclo[20.5.2.11,4.13,7.025,28]hentriaconta-3,5,7(30),20,22(29),23,25(28)-heptaene-8,11,27-trione] | 0.0126 | ring closure, isolated yield ([1]; from CNCCCCCCC/C=C/c1cnc2c(c1)[C@@]1(Cc3cc(C(=O)N[C@H](Cc4cc(C)c5[nH]ncc5c4)C(=O)O)cnc3C1)C(=O)N2, 22-membered ring, HATU/DIEA, DMF, 3.0 mM): 34.8%; ring closure, yield of all isomers ([2]; from CNCCCCCCC/C=C/c1cnc2c(c1)[C@@]1(Cc3cc(C(=O)N[C@H](Cc4cc(C)c5[nH]ncc5c4)C(=O)O)cnc3C1)C(=O)N2, HATU, DMF, 3.04 mM): 34.8% |
| Cc1cc(C[C@H]2NC(=O)c3cnc4c(c3)C[C@@]3(C4)C(=O)Nc4ncc(cc43)/C=C/COCCCCCN(C)C2=O)cc2cn[nH]c12 [Example 1-6, (1S,10R,20E)-12-methyl-10-[(7-methyl-1H-indazol-5-yl)methyl]-18-oxa-5,9,12,24,26-pentazapentacyclo[20.5.2.11,4.13,7.025,28]hentriaconta-3,5,7(30),20,22(29),23,25(28)-heptaene-8,11,27-trione] | 0.0126 | ring closure, isolated yield ([1]; from CNCCCCCOC/C=C/c1cnc2c(c1)[C@@]1(Cc3cc(C(=O)N[C@H](Cc4cc(C)c5[nH]ncc5c4)C(=O)O)cnc3C1)C(=O)N2, 22-membered ring, HATU/DIEA, DMF, 3.7 mM, 0.03 h): 58.9%; ring closure, yield of all isomers ([2]; from CNCCCCCOC/C=C/c1cnc2c(c1)[C@@]1(Cc3cc(C(=O)N[C@H](Cc4cc(C)c5[nH]ncc5c4)C(=O)O)cnc3C1)C(=O)N2, HATU, DMF, 3.68 mM, 0.03 h): 58.9% |
| Cc1cc(C[C@H]2OC(=O)c3cnc4c(c3)C[C@@]3(C4)C(=O)Nc4ncc(cc43)/C=C/COCCOCCN(C)C2=O)cc2cn[nH]c12 [Example 4-1, (1S,10R,20E)-12-methyl-10-[(7-methyl-1H-indazol-5-yl)methyl]-9,15,18-trioxa-5,12,24,26-tetrazapentacyclo[20.5.2.11,4.13,7.025,28]hentriaconta-3,5,7(30),20,22(29),23,25(28)-heptaene-8,11,27-trione] | 0.2 | ring closure, isolated yield ([1]; from CNCCOCCOC/C=C/c1cnc2c(c1)[C@@]1(Cc3cc(C(=O)O[C@H](Cc4cc(C)c5[nH]ncc5c4)C(=O)O)cnc3C1)C(=O)N2, 22-membered ring, HATU/DIEA, DMA, 5.0 mM, 0.08 h): 62%; ring closure, yield of all isomers ([2]; from CNCCOCCOC/C=C/c1cnc2c(c1)[C@@]1(Cc3cc(C(=O)O[C@H](Cc4cc(C)c5[nH]ncc5c4)C(=O)O)cnc3C1)C(=O)N2, HATU, DMA, 5.0 mM, 0.08 h): 62% |
| Cc1cc(C[C@H]2OC(=O)c3ccc4c(c3)C[C@]3(C4)C(=O)Nc4ncc(cc43)/C=C/COCCOCCN(C)C2=O)cc2cn[nH]c12 [Example 5-1, (1S,10R,20E)-12-methyl-10-[(7-methyl-1H-indazol-5-yl)methyl]-9,15,18-trioxa-12,24,26-triazapentacyclo[20.5.2.11,4.13,7.025,28]hentriaconta-3,5,7(30),20,22(29),23,25(28)-heptaene-8,11,27-trione] | 0.501 |  |
| Cc1cc(C[C@H]2OC(=O)c3ccc4c(c3)C[C@@]3(C4)C(=O)Nc4ncc(cc43)/C=C/COCCOCCN(C)C2=O)cc2cn[nH]c12 [Example 5-2, (1R,10R,20E)-12-methyl-10-[(7-methyl-1H-indazol-5-yl)methyl]-9,15,18-trioxa-12,24,26-triazapentacyclo[20.5.2.11,4.13,7.025,28]hentriaconta-3,5,7(30),20,22(29),23,25(28)-heptaene-8,11,27-trione] | 0.398 |  |
| Cc1cc(C[C@H]2NC(=O)N3CCC4(CC3)OC(=O)Nc3ncc(cc34)/C=C/COCCOCCN(C)C2=O)cc2cn[nH]c12 [Example 6-1, (7R,17E)-9-methyl-7-[(7-methyl-1H-indazol-5-yl)methyl]-12,15,25-trioxa-4,6,9,21,23-pentazatetracyclo[17.6.2.21,4.022,26]nonacosa-17,19(27),20,22(26)-tetraene-5,8,24-trione] | 0.501 | ring closure, isolated yield ([1]; from CNCCOCCOC/C=C/c1cnc2c(c1)C1(CCN(C(=O)N[C@H](Cc3cc(C)c4[nH]ncc4c3)C(=O)O)CC1)OC(=O)N2, 21-membered ring, PyAOP/DIEA, DMF, 3.1 mM, 25.0 °C, 0.5 h): 45%; ring closure, yield of all isomers ([2]; from CNCCOCCOC/C=C/c1cnc2c(c1)C1(CCN(C(=O)N[C@H](Cc3cc(C)c4[nH]ncc4c3)C(=O)O)CC1)OC(=O)N2, PyAOP, DMF, 3.08 mM, 25.0 °C, 0.5 h): 45% |
| Cc1cc(C[C@H]2OC(=O)N3CCC4(CC3)OC(=O)Nc3ncc(cc34)/C=C/COCCOCCN(C)C2=O)cc2cn[nH]c12 [Example 7-1, (7R,17E)-9-methyl-7-[(7-methyl-1H-indazol-5-yl)methyl]-6,12,15,25-tetraoxa-4,9,21,23-tetrazatetracyclo[17.6.2.21,4.022,26]nonacosa-17,19(27),20,22(26)-tetraene-5,8,24-trione] | 1.26 | ring closure, isolated yield ([1]; from CNCCOCCOC/C=C/c1cnc2c(c1)C1(CCN(C(=O)O[C@H](Cc3cc(C)c4[nH]ncc4c3)C(=O)O)CC1)OC(=O)N2, 21-membered ring, PyAOP/DIEA, DMF, 3.8 mM, 0.67 h): 50%; ring closure, yield of all isomers ([2]; from CNCCOCCOC/C=C/c1cnc2c(c1)C1(CCN(C(=O)O[C@H](Cc3cc(C)c4[nH]ncc4c3)C(=O)O)CC1)OC(=O)N2, PyAOP, DMF, 3.76 mM, 0.67 h): 50% |
| Cc1cc(C[C@H]2OC(=O)N3CCC4(CC3)OC(=O)Nc3ncc(cc34)/C=C/COCCOCCOCCN(C)C2=O)cc2cn[nH]c12 [Example 7-2, (7R,20E)-9-methyl-7-[(7-methyl-1H-indazol-5-yl)methyl]-6,12,15,18,28-pentaoxa-4,9,24,26-tetrazatetracyclo[20.6.2.21,4.025,29]dotriaconta-20,22(30),23,25(29)-tetraene-5,8,27-trione] | 2 |  |
| Cc1cc(C[C@H]2OC(=O)N3CCC4(CC3)OC(=O)Nc3ncc(cc34)/C=C/COCCCCCN(C)C2=O)cc2cn[nH]c12 [Example 7-3, (7R,17E)-9-methyl-7-[(7-methyl-1H-indazol-5-yl)methyl]-6,15,25-trioxa-4,9,21,23-tetrazatetracyclo[17.6.2.21,4.022,26]nonacosa-17,19(27),20,22(26)-tetraene-5,8,24-trione] | 1.26 |  |
| Cc1cc(C[C@H]2OC(=O)N3CCC4(CC3)OC(=O)Nc3ncc(cc34)/C=C/COCCOCCCN(C)C2=O)cc2cn[nH]c12 [Example 7-4, (7R,18E)-9-methyl-7-[(7-methyl-1H-indazol-5-yl)methyl]-6,13,16,26-tetraoxa-4,9,22,24-tetrazatetracyclo[18.6.2.21,4.023,27]triaconta-18,20(28),21,23(27)-tetraene-5,8,25-trione] | 1.26 |  |
| Cc1cc(C[C@H]2OC(=O)N3CCC4(CC3)OC(=O)Nc3ncc(cc34)CCCOCCOCCOCCN(C)C2=O)cc2cn[nH]c12 [Example 7-5, (7R)-9-methyl-7-[(7-methyl-1H-indazol-5-yl)methyl]-6,12,15,18,28-pentaoxa-4,9,24,26-tetrazatetracyclo[20.6.2.21,4.025,29]dotriaconta-22(30),23,25(29)-triene-5,8,27-trione] | 1.58 |  |
| Cc1cc(C[C@H]2OC(=O)N3CCC4(CC3)OC(=O)Nc3ncc(cc34)CCCOCCCCCN(C)C2=O)cc2cn[nH]c12 [Example 7-6, (7R)-9-methyl-7-[(7-methyl-1H-indazol-5-yl)methyl]-6,15,25-trioxa-4,9,21,23-tetrazatetracyclo[17.6.2.21,4.022,26]nonacosa-19(27),20,22(26)-triene-5,8,24-trione] | 0.251 |  |
| Cc1cc(C[C@H]2OC(=O)N3CCC4(CC3)OC(=O)Nc3ncc(cc34)CCCOCCOCCCN(C)C2=O)cc2cn[nH]c12 [Example 7-7, (7R)-9-methyl-7-[(7-methyl-1H-indazol-5-yl)methyl]-6,13,16,26-tetraoxa-4,9,22,24-tetrazatetracyclo[18.6.2.21,4.023,27]triaconta-20(28),21,23(27)-triene-5,8,25-trione] | 3.98 |  |
